# Where “and” joins values, the source holds several entries; their conditions need not be identical. Identical values can stand only once. Entries after “also recorded” stand apart in the source; their conditions may differ. Like-named read-outs stand apart in the source and are kept apart here.
# Assays:
# [1] = Acute toxicity LD50, subcutaneous, rats
# [2] = Acute toxicity LD50, subcutaneous, mice
# [3] = O2^- scavenging / SOD activity, DMSO-KO2 nitro blue tetrazolium method; format: biochemical; details: mean
# Method: The SOD activity of Orgotein and of tumor homogenates is assayed by the method of Beauchamp and Fridovich. Reaction mixtures contain 0.05M potassium phosphate buffer (pH 7.8) with 10^-3 M diethylenetriaminepentaacetic acid, 10^-4 M of xanthine, 5.6×10^-5 M of nitro blue tetrazolium, 10^-3 units of xanthine oxidase and 1 unit of catalase. Addition of 5×10^-3 M NaCN to this mixture inhibits CuZnSOD activity and allows the measurement of the activity of the cyanid insensitive MnSOD alone. The rate of blue formazan formation is measured by following the change of absorbance at 560 nm with a Cary Model 15 spectrophotometer. The sensitivity of the assay was such that 1 unit equaled 14±1 ng of pure erythrocyte SOD. The amount of protein in each sample is assayed using a conventional method. […] After bones and muscles are removed, the tumor tissue is rinsed and minced in 0.05 M potassium phosphate buffer (pH 7.8) and homogenized in a motor-driven Teflon pestle homogenizer. […] CuDIPS is dissolved in 10% Tween 80-saline. This alternate method is chosen due to the length of previous procedure and lipid insolubility of some of the reactants of the previous assay. Free O2^- is released when DMSO-KO2 is added to an aqueous solution. […] The formation of blue formazan is determined by recording the final absorbance of the assay mixture at 560 nm with a Cary Model 15 spectrophotometer. […]
# [4] = tested on: neuroblastoma cell clone NBP2; format: cell-based, mouse; details: 3 days; for % differentiation: control 8.0 ± 3.7; for % differentiation / Cell number ×10^5: mean ± S.D.; for Cell number ×10^5: control 17.1 ± 1.9
# Method: The neuroblastoma cell clone NBP2 provided by Dr. K. N. Prasad (University of Colorado), is maintained according to the procedure of Prasad and Hsie, Prasad, K. N. and Hsie, A. N., Nature New Biol. 233:141 (1971), hereby incorporated by reference. Cells are grown as a monolayer in 75 cm^2 Falcon plastic tissue culture flasks containing F-12 medium supplemented with 10% gamma globulin-free new born calf serum, penicillin (100 U/ml) and streptomycin (100 μg/ml). Cultures are maintained in a humidified atmosphere of 5% CO2 in a water jacketed incubator at 37° C. […] Only exponentially growing cells are used in the experiment. […] Medium, serum, antibiotics, and pancreatin are purchased from Grand Island Biological Company. […] Fifty-thousand cells were seeded in each […] plastic petri dish containing 5 ml of the growth medium. Cells are treated with CuDIPS 24 hours after seeding. CuDIPS is dissolved in ethanol to give a final concentration of 10, 25, or 50 μg/ml of copper compound in the medium. The concentration of ethanol in the medium is kept constant at 1% in all the treated and control dishes. Culture dishes containing 1% ethanol serve as controls. One day after the start of treatments and daily afterwards, fresh drug and medium are provided in each dish. To avoid possible degradation, CuDIPS is dissolved in ethanol immediately before use. The experiment is done in triplicate. Three days after the initial treatments the number of cells and percent differentiation of cells are scored in each dish. Four hundred cells per culture dish from at least three different regions are examined with a Leitz Divert phase contrast microscope. Cells with one or more processes at least twice as long as the soma diameter (processes usually longer than 50 microns) are scored as differentiated. To count the number of cells, cells are harvested with Pancreatin and the number of cells in each dish is determined by counting cells in a hemocytometer.
# [5] = Body weight of tumor bearing CBA mice (Ehrlich carcinoma); format: in vivo
# [6] = rats, subcutaneous; reported; cited from earlier work
# [7] = SOD activity, xanthine-xanthine oxidase nitro blue tetrazolium method (Beauchamp and Fridovich); format: biochemical
# Method: Orgotein, a generic name for CuZnSOD derived from bovine liver, is obtained from Diagnostic Data Incorporated, Mountain View, California. It is 98% pure CuZnSOD isolated from bovine liver and had 3,300 units of pure erythrocyte SOD activity/mg protein when assayed by the method of Beauchamp, C. and Fridovich, I., Superoxide Dismutase: Improved Assays and an Assay Applicable to Acrylamide Gel., Anal. Biochem. 44:276-287 (1971), hereby incorporated by reference. Orgotein was dissolved in USP grade nonpyrogenic sterile saline.
# The SOD activity of Orgotein and of tumor homogenates is assayed by the method of Beauchamp and Fridovich. Reaction mixtures contain 0.05M potassium phosphate buffer (pH 7.8) with 10^-3 M diethylenetriaminepentaacetic acid, 10^-4 M of xanthine, 5.6×10^-5 M of nitro blue tetrazolium, 10^-3 units of xanthine oxidase and 1 unit of catalase. […] The rate of blue formazan formation is measured by following the change of absorbance at 560 nm with a Cary Model 15 spectrophotometer. […] O2^- scavenging ability of CuDIPS is determined by a similar assay method; the only difference is that dimethyl sulfoxide (DMSO) solvated potassium superoxide (KO2) is used to generate O2^- instead of xanthine and xanthine oxidase. […] The formation of blue formazan is determined by recording the final absorbance of the assay mixture at 560 nm with a Cary Model 15 spectrophotometer. […]
# Sarcoma 180 cells [8] = assay: Tumor growth and survival of CF1 mice implanted with Sarcoma 180 cells; format: in vivo
# Method: Autopsies are performed on all dead animals.
# Sarcoma 180 cells [9] = assay: Viability of Sarcoma 180 cells incubated in Orgotein; format: cell-based, mice; details: 2.5×10^7 cells/ml; 0.8 mg/ml, one hour
# Method: Table II and Chart II show the survival times of these tumor bearing mice; there is a 23% increase in mean survival time in the Orgotein treated group (p less than 0.1). Viability of the Sarcoma 180 cells (2.5×10^7 cells/ml) is unchanged when they are incubated in 0.8 mg/ml Orgotein for one hour, showing that the effect of Orgotein is probably not due to cytotoxicity.
# [10] = 50 μg/ml, listed as Cu(II)(3,5-diisopropylsalicylate)2
compound,measurement,setting,value
CC(=O)Oc1ccccc1C(=O)[O-].CC(=O)Oc1ccccc1C(=O)[O-].CC(=O)Oc1ccccc1C(=O)[O-].CC(=O)Oc1ccccc1C(=O)[O-].[Cu+2].[Cu+2] [Cu(II)2 (aspirinate)4],LD50,[1],760 mg/kg
same,LD50,[2],greater than 320 mg/kg
"CC(C)c1cc(C(=O)[O-])c(O)c(C(C)C)c1.CC(C)c1cc(C(=O)[O-])c(O)c(C(C)C)c1.[Cu+2] [CuDIPS, Cu(II) (3,5-diisopropylsalicylate)2]",SOD activity,[3],"17,400±1,800 units of SOD activity/mg of the compound"
same,% differentiation,"[4]; 10 μg/ml, listed as Cu(II)(3,5-diisopropylsalicylate)2",7.4 ± 2.6%
same,Cell number ×10^5,"[4]; 10 μg/ml, p less than 0.05",a small reduction in the number of cells per culture dish
same,Cell number ×10^5,"[4]; 10 μg/ml, p less than 0.05, listed as Cu(II)(3,5-diisopropylsalicylate)2",12.7 ± 1.4 ×10^5
same,cell population relative to control,[4]; 25 μg/ml,less than half of the cell population
same,% differentiation,[4]; 25 μg/ml,22.4±2.6%
same,% differentiation,"[4]; 25 μg/ml, listed as Cu(II)(3,5-diisopropylsalicylate)2",22.4 ± 2.6%
same,Cell number ×10^5,"[4]; 25 μg/ml, per culture dish",7.1±1.2 ×10^5
same,Cell number ×10^5,"[4]; 25 μg/ml, per culture dish, listed as Cu(II)(3,5-diisopropylsalicylate)2",7.1 ± 1.2 ×10^5
same,morphology of treated cells,[4]; 50 μg/ml,morphologically resembles mature neural cells
same,% differentiation,[4]; 50 μg/ml,74.2±4.9%
same,% differentiation,[4]; [10],74.2 ± 4.9%
same,Cell number ×10^5,[4]; 50 μg/ml,a remarkable reduction in cell population
same,Cell number ×10^5,[4]; [10],1.4 ± 0.6 ×10^5
same,body weight change,"[5]; mouse, in vivo",no weight loss was observed
same,LD50,[6],240 mg/kg and 240 ± 33 mg/kg
"O=S(=O)([O-])[O-].[Cu+2] [CuSO4, copper sulfate]",body weight change,"[5]; CuSO4 0.5 mg in 0.1 ml, 5 days",continuous loss of weight
"CC(C)c1cc(C(=O)O)c(O)c(C(C)C)c1 [DIPS, diisopropylsalicylic acid]",body weight change,"[5]; DIPS i.m., single doses",loss of body weight
Orgotein: generic name for CuZnSOD derived from bovine liver,SOD activity of Orgotein as obtained,[7]; method of Beauchamp and Fridovich,"3,300 units of pure erythrocyte SOD activity/mg protein"
same,SOD activity,[7]; xanthine-xanthine oxidase method,"49,500±300 units of SOD activity/mg protein"
same,tumor growth curve vs control after 27 days,"Sarcoma 180 cells [8]; 1.2 mg at 1 hour after implantation, after 27 days",the growth curves are the same
same,reduction in tumor size,"Sarcoma 180 cells [8]; 1.2 mg at 1 hour after implantation, p less than 0.05 between 11 and 27 days",reduction of tumor size; also recorded: a reduction in tumor size is observed
same,Maximum Survival Time,Sarcoma 180 cells [8]; 1.2 mg i.m. at 1 hour,90 days
same,Median Survival Time,Sarcoma 180 cells [8]; 1.2 mg i.m. at 1 hour,53 days
same,Mean Survival Time,"Sarcoma 180 cells [8]; 1.2 mg i.m. at 1 hour, ± standard error, p less than 0.1",53 ± 5 days
same,increase in mean survival time,"Sarcoma 180 cells [8]; Orgotein treated group, p less than 0.1",23%
same,effect on tumor growth and survival,"Sarcoma 180 cells [8]; local injection, Sarcoma 180",a slight effect on the tumor growth and survival
same,"tumor growth / survival, delayed treatment",Sarcoma 180 cells [8]; same dose given 5 or 10 days after transplantation,no significant decrease in tumor growth or increase in survival is observed
same,Viability of the Sarcoma 180 cells,Sarcoma 180 cells [9],unchanged

# Source: patent US4952607A, “Copper complex for treating cancer” (priority 1986, dated 1990)
